Where a name gives a salt, the structure may show the parent alone.
Key:
CDK5/p25 = target: T1, CDK5/p25 (Homo sapiens, UniProt Q00535); assay: ADP-Glo Kinase Assay, CDK5/p25; format: biochemical; settings: read-out: % inhibition at 1 μM CDK5/p25; also: ATP at apparent Km (12 µM)
T1 construct: purchased Millipore, Billerica, Mass., USA
Protocol: (§1) Testing of the compounds described in this invention was carried out using the ADP-Glo™ Kinase Assay from Promega Corporation (Madison, Wis., USA).
(§2) The ADP-Glo™ Kinase Assay is a luminescent ADP detection assay to measure kinase activity by quantifying the amount of ADP produced during a kinase reaction. The kinase assay is performed in kinase assay buffer (5 mM MOPS, pH 7.5, 5 mM MgCl2, 0.4 mM EDTA, 1.5 mM DTT). Test samples initially dissolved in DMSO at 10 mM were diluted with the assay buffer to 1000 nM. A 30 μL volume/well of a mixture of substrates containing ATP (final ATP concentration in each kinase assay was equal to its apparent ATP Km).
(§3) The assay was performed in two steps: first, after the kinase reaction, an equal volume of ADP-Glo™ Reagent was added to terminate the kinase reaction and deplete the remaining ATP. Second, the Kinase Detection Reagent was added to simultaneously convert ADP to ATP and allowed the newly synthesized ATP to be measured using a luciferase/luciferin reaction. The luminescent signal generated was proportional to the ADP concentration produced and was correlated with kinase activity.

SW480 cells = assay: MTS viability assay, SW480; format: cell-based; settings: Homo sapiens, SW480, 72 hour incubation, read-out: IC50 [μM] SW-480 ED50
From the text: (§4) The viability of CDK8 expressing cells can be evaluated using a tetrazolium salt reduction cell-based assay. In viable cells this colorimetric assay can measure mitochondrial reduction of a tetrazolium component (MTS) into an […] formazan product. For MTS viability assay, human colon cancer cell lines were used (SW480 and HCT116 cell lines), containing elevated levels of CDK8 protein and highly dependent on its expression for proliferation [see, Firenstein et al. Nature 455 (25):547-551, (2008)]. These cell lines were used to determine the activity of the compounds provided herein to inhibit CDK8 in intact cells. Human tumor cell lines were obtained from ATCC (Rockville Md. USA). In each case, and by methods known to those practiced in the art of cell culture, vaiability was measured after 72 hour incubation with the compounds provided herein using a standard MTS protocol (CellTiter 96® AQueous Non-Radioactive Cell Proliferation Assay).
(§5) Briefly, cells were plated at 10,000-20,000 cells per well in DMEM medium supplemented with 10% fetal bovine serum. The compound plate was set up by aliquoting into column 1 of a 96-well plate, the negative control (DMSO), aliquoting into column 12 the positive control, and titrating the test compound in serial dilutions into columns 2-11. An aliquot from each well of the compound plate was transferred to the plated cells and then incubated at 37° C. in 5% CO2. 20 μL of MTS tetrazolium was added to each well of optical plate and the cells were incubated at 37° C. in 5% CO2 for 2 hours. The absorbance was measured at 490 nm using a microplate reader.

CDK8/CyclinC = target: T2, CDK8/CyclinC (Homo sapiens, UniProt P49336); assay: ADP-Glo Kinase Assay, CDK8/CyclinC; format: biochemical; settings: read-out: % inhibition at 1 μM CDK8/CyclinC; also: ATP at apparent Km (53 µM)
T2 construct: purchased ProQinase, Freiburg, Germany
Protocol: as §1, §2, §3

CDK7/CyclinH/MAT1 = target: T3, CDK7/CyclinH/MAT1 (Homo sapiens, UniProt P50613); assay: ADP-Glo Kinase Assay, CDK7/CyclinH/MAT1; format: biochemical; settings: read-out: % inhibition at 1 μM CDK7/CyclinH/MAT1
T3 construct: purchased Millipore, Billerica, Mass., USA
Protocol: as §1, §2, §3

HCT116 cells = assay: MTS viability assay, HCT116; format: cell-based; settings: Homo sapiens, HCT-116, HCT116, 72 hour incubation, read-out: IC50 [μM] HCT116 ED50
From the text: as §4, §5

CDK9/CyclinT = target: T4, CDK9/CyclinT (Homo sapiens, UniProt P50750); assay: ADP-Glo Kinase Assay, CDK9/CyclinT; format: biochemical; settings: read-out: % inhibition at 1 μM CDK9/CyclinT; also: ATP at apparent Km (26 µM)
T4 construct: purchased Proqinase, Freiburg, Germany
Protocol: as §1, §2, §3

CDK1/CyclinB = target: T5, CDK1/CyclinB (Homo sapiens, UniProt P06493); assay: ADP-Glo Kinase Assay, CDK1/CyclinB; format: biochemical; settings: read-out: % inhibition at 1 μM CDK1/CyclinB; also: ATP at apparent Km (20 µM)
T5 construct: purchased Millipore, Billerica, Mass., USA
Protocol: Testing of the compounds described in this invention was carried out using the ADP-Glo™ Kinase Assay from Promega Corporation (Madison, Wis., USA). […] The ADP-Glo™ Kinase Assay is a luminescent ADP detection assay to measure kinase activity by quantifying the amount of ADP produced during a kinase reaction. The kinase assay is performed in kinase assay buffer (5 mM MOPS, pH 7.5, 5 mM MgCl2, 0.4 mM EDTA, 1.5 mM DTT). Test samples initially dissolved in DMSO at 10 mM were diluted with the assay buffer to 1000 nM. A 30 μL volume/well of a mixture of substrates containing ATP (final ATP concentration in each kinase assay was equal to its apparent ATP Km). […] The assay was performed in two steps: first, after the kinase reaction, an equal volume of ADP-Glo™ Reagent was added to terminate the kinase reaction and deplete the remaining ATP. Second, the Kinase Detection Reagent was added to simultaneously convert ADP to ATP and allowed the newly synthesized ATP to be measured using a luciferase/luciferin reaction. The luminescent signal generated was proportional to the ADP concentration produced and was correlated with kinase activity.

CDK2/CyclinE = target: T6, CDK2/CyclinE (Homo sapiens, UniProt P24941); assay: ADP-Glo Kinase Assay, CDK2/CyclinE; format: biochemical; settings: read-out: % inhibition at 1 μM CDK2/CyclinE
T6 construct: purchased Millipore, Billerica, Mass., USA
Protocol: as §1, §2, §3

T5 sequence (P06493 whole entry): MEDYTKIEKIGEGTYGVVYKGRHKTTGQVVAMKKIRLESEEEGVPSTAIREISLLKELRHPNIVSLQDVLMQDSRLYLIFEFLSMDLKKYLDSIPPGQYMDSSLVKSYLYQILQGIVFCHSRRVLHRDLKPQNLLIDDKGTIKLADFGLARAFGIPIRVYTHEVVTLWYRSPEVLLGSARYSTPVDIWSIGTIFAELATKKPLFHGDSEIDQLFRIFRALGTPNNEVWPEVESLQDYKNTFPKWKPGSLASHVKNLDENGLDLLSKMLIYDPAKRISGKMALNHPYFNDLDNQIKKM
T5 sequence (P14635 whole entry partner): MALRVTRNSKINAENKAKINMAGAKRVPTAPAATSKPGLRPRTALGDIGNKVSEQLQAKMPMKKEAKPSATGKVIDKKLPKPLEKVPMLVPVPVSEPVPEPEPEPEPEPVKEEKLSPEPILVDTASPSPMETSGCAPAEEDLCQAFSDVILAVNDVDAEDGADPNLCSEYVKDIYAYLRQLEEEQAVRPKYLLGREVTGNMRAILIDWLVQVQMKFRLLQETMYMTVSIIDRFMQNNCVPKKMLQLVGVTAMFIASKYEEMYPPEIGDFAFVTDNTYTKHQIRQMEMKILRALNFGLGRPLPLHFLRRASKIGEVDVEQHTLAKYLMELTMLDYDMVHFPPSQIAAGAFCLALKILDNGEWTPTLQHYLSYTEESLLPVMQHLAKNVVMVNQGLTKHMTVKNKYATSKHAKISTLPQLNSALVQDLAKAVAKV
T4 sequence (P50750 whole entry): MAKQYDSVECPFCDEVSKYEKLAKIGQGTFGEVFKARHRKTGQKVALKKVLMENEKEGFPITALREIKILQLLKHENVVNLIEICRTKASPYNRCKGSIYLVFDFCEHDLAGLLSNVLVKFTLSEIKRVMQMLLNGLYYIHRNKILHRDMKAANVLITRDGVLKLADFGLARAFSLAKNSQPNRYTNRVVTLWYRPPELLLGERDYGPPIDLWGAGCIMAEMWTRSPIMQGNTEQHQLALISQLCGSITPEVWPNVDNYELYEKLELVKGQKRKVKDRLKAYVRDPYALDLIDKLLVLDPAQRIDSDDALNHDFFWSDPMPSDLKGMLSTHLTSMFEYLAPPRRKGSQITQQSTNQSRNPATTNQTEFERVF
T4 sequence (O60563 whole entry partner): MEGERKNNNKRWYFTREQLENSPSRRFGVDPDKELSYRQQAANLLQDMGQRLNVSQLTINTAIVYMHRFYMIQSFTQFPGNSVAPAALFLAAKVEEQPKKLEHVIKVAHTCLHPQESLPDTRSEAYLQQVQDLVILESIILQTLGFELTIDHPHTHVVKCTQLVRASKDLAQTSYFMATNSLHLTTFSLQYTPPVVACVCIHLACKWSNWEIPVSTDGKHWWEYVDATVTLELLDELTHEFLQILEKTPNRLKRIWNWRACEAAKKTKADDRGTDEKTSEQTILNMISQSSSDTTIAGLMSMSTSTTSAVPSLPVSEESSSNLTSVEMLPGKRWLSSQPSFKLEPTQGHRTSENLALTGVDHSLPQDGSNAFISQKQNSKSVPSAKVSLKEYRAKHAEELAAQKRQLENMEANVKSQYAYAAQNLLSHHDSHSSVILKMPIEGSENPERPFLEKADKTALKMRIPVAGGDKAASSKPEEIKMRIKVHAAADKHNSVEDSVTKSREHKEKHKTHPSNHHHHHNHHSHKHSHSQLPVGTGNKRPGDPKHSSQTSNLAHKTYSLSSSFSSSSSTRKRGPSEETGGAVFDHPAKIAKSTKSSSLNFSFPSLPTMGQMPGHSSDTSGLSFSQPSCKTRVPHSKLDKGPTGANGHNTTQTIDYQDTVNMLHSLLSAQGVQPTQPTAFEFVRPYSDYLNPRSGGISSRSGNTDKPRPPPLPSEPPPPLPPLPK
T3 sequence (P50613 whole entry): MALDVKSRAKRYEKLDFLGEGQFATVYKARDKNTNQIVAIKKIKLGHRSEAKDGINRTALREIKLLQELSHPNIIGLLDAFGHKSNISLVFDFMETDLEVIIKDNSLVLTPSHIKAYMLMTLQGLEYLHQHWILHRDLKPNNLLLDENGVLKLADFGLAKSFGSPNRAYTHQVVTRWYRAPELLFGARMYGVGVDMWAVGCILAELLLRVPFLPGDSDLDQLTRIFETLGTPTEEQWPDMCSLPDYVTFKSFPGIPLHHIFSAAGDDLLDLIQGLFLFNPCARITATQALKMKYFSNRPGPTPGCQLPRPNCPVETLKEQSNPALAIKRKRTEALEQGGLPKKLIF
T3 sequence (P51946 whole entry partner): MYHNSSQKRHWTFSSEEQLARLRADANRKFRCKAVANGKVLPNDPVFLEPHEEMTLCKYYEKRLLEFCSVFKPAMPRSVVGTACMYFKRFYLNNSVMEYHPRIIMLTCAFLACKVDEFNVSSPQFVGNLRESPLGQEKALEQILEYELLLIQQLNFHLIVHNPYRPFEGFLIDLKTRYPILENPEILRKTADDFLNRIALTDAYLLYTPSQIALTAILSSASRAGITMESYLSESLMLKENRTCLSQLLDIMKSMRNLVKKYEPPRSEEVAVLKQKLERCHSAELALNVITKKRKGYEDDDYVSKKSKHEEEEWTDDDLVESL
T3 sequence (P51948 whole entry partner): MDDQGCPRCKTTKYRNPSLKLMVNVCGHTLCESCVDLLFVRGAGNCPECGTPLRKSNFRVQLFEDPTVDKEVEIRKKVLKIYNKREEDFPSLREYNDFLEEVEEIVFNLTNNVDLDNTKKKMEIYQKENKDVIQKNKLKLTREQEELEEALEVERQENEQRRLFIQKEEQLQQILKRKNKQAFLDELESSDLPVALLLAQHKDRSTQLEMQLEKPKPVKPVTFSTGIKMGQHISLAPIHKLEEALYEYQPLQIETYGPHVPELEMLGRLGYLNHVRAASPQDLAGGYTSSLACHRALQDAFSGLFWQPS
T1 sequence (Q00535 whole entry): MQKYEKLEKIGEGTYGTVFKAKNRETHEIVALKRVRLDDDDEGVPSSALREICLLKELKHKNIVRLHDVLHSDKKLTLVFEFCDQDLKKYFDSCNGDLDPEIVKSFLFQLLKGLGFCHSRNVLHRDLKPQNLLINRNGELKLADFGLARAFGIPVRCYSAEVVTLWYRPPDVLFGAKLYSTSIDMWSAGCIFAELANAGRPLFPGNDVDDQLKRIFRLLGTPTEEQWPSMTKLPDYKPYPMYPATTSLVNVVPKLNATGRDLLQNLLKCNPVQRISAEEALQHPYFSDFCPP
T1 sequence (Q15078 99-307 partner limits assumed): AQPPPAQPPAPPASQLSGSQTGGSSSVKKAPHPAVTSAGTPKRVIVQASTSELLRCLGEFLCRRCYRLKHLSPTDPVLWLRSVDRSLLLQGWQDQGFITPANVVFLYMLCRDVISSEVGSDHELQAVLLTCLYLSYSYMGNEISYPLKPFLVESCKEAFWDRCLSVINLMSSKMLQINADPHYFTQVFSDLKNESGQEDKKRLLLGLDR
T2 sequence (P49336 whole entry): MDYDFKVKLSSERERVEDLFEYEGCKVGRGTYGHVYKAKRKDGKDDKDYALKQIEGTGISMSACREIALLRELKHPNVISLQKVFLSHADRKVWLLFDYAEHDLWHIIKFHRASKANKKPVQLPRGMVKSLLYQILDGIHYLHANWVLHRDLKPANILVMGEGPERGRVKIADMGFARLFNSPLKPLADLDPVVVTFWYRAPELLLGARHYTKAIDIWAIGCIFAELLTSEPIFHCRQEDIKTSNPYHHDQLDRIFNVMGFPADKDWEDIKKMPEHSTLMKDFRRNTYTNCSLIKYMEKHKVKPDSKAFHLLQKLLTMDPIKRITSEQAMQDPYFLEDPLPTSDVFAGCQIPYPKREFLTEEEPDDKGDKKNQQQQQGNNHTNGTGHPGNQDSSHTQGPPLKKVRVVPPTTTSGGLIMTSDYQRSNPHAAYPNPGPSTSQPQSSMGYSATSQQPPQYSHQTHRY
T2 sequence (P24863 whole entry partner): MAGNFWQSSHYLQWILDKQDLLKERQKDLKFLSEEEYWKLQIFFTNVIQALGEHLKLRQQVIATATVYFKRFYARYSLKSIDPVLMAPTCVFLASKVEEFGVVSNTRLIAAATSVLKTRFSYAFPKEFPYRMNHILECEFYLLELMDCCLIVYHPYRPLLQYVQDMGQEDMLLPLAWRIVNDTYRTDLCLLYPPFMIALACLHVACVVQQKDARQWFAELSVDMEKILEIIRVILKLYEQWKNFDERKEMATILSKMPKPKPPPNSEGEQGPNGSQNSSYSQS

inhibition at 1 µM (CDK5/p25) | IC50 (SW480 cells) | inhibition at 1 µM (CDK8/CyclinC) | inhibition at 1 µM (CDK7/CyclinH/MAT1) | IC50 (HCT116 cells) | inhibition at 1 µM (CDK9/CyclinT) | inhibition at 1 µM (CDK1/CyclinB) | inhibition at 1 µM (CDK2/CyclinE) | Structure (SMILES)
0% | 1.9 µM | 52% | 0% | 1.2 µM | 33% | 0% | 0% | NCCNc1nc2c(Br)c(Br)c(Br)c3c2n1CCC3 [Example 1A, N-(7,8,9-tribromo-5,6-dihydro-4H-imidazo[4,5,1-ij]quinolin-2-yl)ethane-1,2-diamine hydrochloride]
 |  | 70% |  | 1.5 µM | 7% | 7% | 1% | Cc1c(Br)c2c3c(nc(N4CCNCC4)n3CCC2)c1Br [Example 1AX]
 |  | 52% |  |  | 9% | 0% | 8% | NCCCNc1nc2c(Br)c(Br)c(Br)c3c2n1CCC3 [Example 1C]
2% |  | 100% | 0% |  | 13% | 7% | 0% | NCCNc1nc2c(I)c(Br)c(Br)c3c2n1CCC3 [Example 1W]
27% | 1.4 µM | 71% | 0% | 6.7 µM | 9% | 15% | 8% | O=[N+]([O-])c1c(Br)c(Br)c2c3c1nc(N1CCNCC1)n3CCC2 [Example 1X]
4% | 0.7 µM | 100% | 0% | 1.3 µM | 39% | 32% | 11% | Brc1c(Br)c2c3c(nc(N4CCNCC4)n3CCC2)c1I [Example 1Y]
0% |  | 61% | 3% |  | 1% | 0% | 4% | OC1CCN(c2nc3c(Br)c(Br)c(Br)c4c3n2CCC4)CC1 [Example 3A, 1-(7,8,9-tribromo-5,6-dihydro-4H-imidazo[4,5,1-ij]quinolin-2-yl)piperidin-4-ol]
 | 1.3 µM | 96% |  | 0.4 µM | 21% |  | 20% | C[C@H]1CN(c2nc3c(Br)c(Br)c(Br)c4c3n2CCC4)CCN1 [Example 3AA]
 | 1.4 µM | 84% |  | 0.4 µM | 47% |  | 27% | C[C@@H]1CN(c2nc3c(Br)c(Br)c(Br)c4c3n2CCC4)CCN1 [Example 3AB]
 | 1.3 µM | 100% |  | 0.6 µM | 42% |  | 16% | C[C@@H]1CN(c2nc3c(I)c(Br)c(Br)c4c3n2CCC4)CCN1 [Example 3AD]
 | 4 µM | 100% |  | 2.8 µM | 39% |  | 40% | CN1CCN(c2nc3c(I)c(Br)c(Br)c4c3n2CCC4)CC1 [Example 3AM]
0% |  | 87% | 11% |  | 20% | 2% | 0% | Brc1c(Br)c2c3c(nc(N4CCCCC4)n3CCC2)c1Br [Example 3D]
14% | 5 µM | 85% | 0% | 6.8 µM | 14% | 0% | 0% | CCN(CC)c1nc2c(Br)c(Br)c(Br)c3c2n1CCC3 [Example 3I]
53% |  | 58% | 0% |  | 34% | 0% | 1% | Nc1nc2c(Br)c(Br)c(Br)c3c2n1CCC3 [Example 3J]
36% | 2.3 µM | 75% | 0% | 1.2 µM | 17% | 7% | 2% | CN1CCN(c2nc3c(Br)c(Br)c(Br)c4c3n2CCC4)CC1 [Example 3M]
0% | 1.4 µM | 88% | 16% | 9.3 µM | 22% | 8% | 5% | CC1CN(c2nc3c(Br)c(Br)c(Br)c4c3n2CCC4)CCN1 (stereo not shown) [Example 3P]
4% |  | 100% | 36% |  | 4% | 0% | 0% | CC1CCCN1c1nc2c(Br)c(Br)c(Br)c3c2n1CCC3 (stereo not shown) [Example 3R]
 | 1.3 µM | 90% |  | 1.6 µM | 21% |  | 17% | C[C@H]1CN(c2nc3c(I)c(Br)c(Br)c4c3n2CCC4)CCN1 [Example 3T]
 | 1.4 µM | 92% |  | 1.5 µM | 10% |  | 8% | CC1(C)CN(c2nc3c(I)c(Br)c(Br)c4c3n2CCC4)CCN1 [Example 3W]
0% | 1.3 µM | 92% | 0% | 1.3 µM | 19% | 0% | 6% | Cc1c(Br)c(Br)c2c3c1nc(C1CCN(C)CC1)n3CCC2 [Example 7A, 7,8-dibromo-9-methyl-2-(1-methylpiperidin-4-yl)-5,6-dihydro-4H-imidazo[4,5,1-ij]quinoline hydrochloride]
 | 6.3 µM | 88% |  | 2.6 µM | 6% |  | 14% | CN1CCC(c2nc3c(Br)c(Br)c(Br)c4c3n2CCC4)CC1 [Example 7B]
0% | 0.9 µM | 83% | 0% | 1.1 µM | 20% | 0% | 7% | Cc1c(Br)c(Br)c2c3c1nc(C1CCNCC1)n3CCC2 [Example 7C]
5% | 0.6 µM | 94% | 15% | 0.3 µM | 39% | 43% | 22% | Brc1c(Br)c2c3c(nc(C4CCNCC4)n3CCC2)c1Br [Example 7E]
 | 4.1 µM | 90% |  | 1.7 µM | 20% |  | 0% | N#Cc1c(Br)c(Br)c2c3c1nc(N1CCNCC1)n3CCC2 [Example 8B]

Source: patent US9745299B2, “Substituted tricyclic benzimidazoles as kinase inhibitors” (SELVITA SA, priority 2012, dated 2017)
